Key:
[1] = system: Caco-2 cell line; experiment: Cytotoxicity MTS assay, Caco-2 cell line; type: cell-based; settings: for OD490 Mean / OD490 Well 1 / OD490 Well 2 / OD490 Well 3: Caco-2 cell line
Method in brief: (§1)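 IC50 reflects non-linear regression of percent cell viability on compound concentration, tested from 0.5 to 100 µM final during a 24 h exposure. Viability was read by MTS at 490 nm; monastrol served as positive control and 0.025% DMSO as blank.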

[2] = system: Hela cell line; experiment: Cytotoxicity MTS assay, Hela cell line; type: cell-based; settings: for OD490 value, Mean / OD490 value, Well 1 / OD490 value, Well 2 / OD490 value, Well 3: Hela cell line, MTS;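 as to OD490 value, Mean: blank control wells received 0.025% DMSO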;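 as to OD490 value, Well 1: blank control wells received 0.025% DMSO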;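 as to OD490 value, Well 2: blank control wells received 0.025% DMSO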;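 as to OD490 value, Well 3: blank control wells received 0.025% DMSO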
Method in brief: as §1

CCOC(=O)c1c(C2NC(=O)NC(C)=C2C(=O)Nc2ccccc2)[nH]c(C(=O)OC)c1C (centres unmarked) [D10]
OD490 Mean ([1]; 0.5μM, first assay): 0.4742 | OD490 Well 1 ([1]; 0.5μM, first assay): 0.4527 | OD490 Well 2 ([1]; 0.5μM, first assay): 0.4966 | OD490 Well 3 ([1]; 0.5μM, first assay): 0.4734 | OD490 Mean ([1]; 0.5μM, second assay): 0.5530 | OD490 Well 1 ([1]; 0.5μM, second assay): 0.531 | OD490 Well 2 ([1]; 0.5μM, second assay): 0.6234 | OD490 Well 3 ([1]; 0.5μM, second assay): 0.5045 | OD490 Mean ([1]; 0.5μM, third assay): 0.6289 | OD490 Well 1 ([1]; 0.5μM, third assay): 0.6132 | OD490 Well 2 ([1]; 0.5μM, third assay): 0.6414 | OD490 Well 3 ([1]; 0.5μM, third assay): 0.6321 | OD490 Mean ([1]; 1μM, first assay): 0.5016 | OD490 Well 1 ([1]; 1μM, first assay): 0.5182 | OD490 Well 2 ([1]; 1μM, first assay): 0.4910 | OD490 Well 3 ([1]; 1μM, first assay): 0.4957 | OD490 Mean ([1]; 1μM, second assay): 0.6121 | OD490 Well 1 ([1]; 1μM, second assay): 0.5315 | OD490 Well 2 ([1]; 1μM, second assay): 0.6788 | OD490 Well 3 ([1]; 1μM, second assay): 0.626 | OD490 Mean ([1]; 1μM, third assay): 0.6367 | OD490 Well 1 ([1]; 1μM, third assay): 0.6031 | OD490 Well 2 ([1]; 1μM, third assay): 0.6621 | OD490 Well 3 ([1]; 1μM, third assay): 0.6449 | OD490 Mean ([1]; 10μM, first assay): 0.4933 | OD490 Well 1 ([1]; 10μM, first assay): 0.4499 | OD490 Well 2 ([1]; 10μM, first assay): 0.5248 | OD490 Well 3 ([1]; 10μM, first assay): 0.5052 | OD490 Mean ([1]; 10μM, second assay): 0.5658 | OD490 Well 1 ([1]; 10μM, second assay): 0.6 | OD490 Well 2 ([1]; 10μM, second assay): 0.624 | OD490 Well 3 ([1]; 10μM, second assay): 0.4735 | OD490 Mean ([1]; 10μM, third assay): 0.6081 | OD490 Well 1 ([1]; 10μM, third assay): 0.6012 | OD490 Well 2 ([1]; 10μM, third assay): 0.6321 | OD490 Well 3 ([1]; 10μM, third assay): 0.5911 | OD490 Mean ([1]; 25μM, first assay): 0.4730 | OD490 Well 1 ([1]; 25μM, first assay): 0.3491 | OD490 Well 2 ([1]; 25μM, first assay): 0.5643 | OD490 Well 3 ([1]; 25μM, first assay): 0.5057 | OD490 Mean ([1]; 25μM, second assay): 0.5406 | OD490 Well 1 ([1]; 25μM, second assay): 0.5132 | OD490 Well 2 ([1]; 25μM, second assay): 0.5889 | OD490 Well 3 ([1]; 25μM, second assay): 0.5197 | OD490 Mean ([1]; 25μM, third assay): 0.5321 | OD490 Well 1 ([1]; 25μM, third assay): 0.5365 | OD490 Well 2 ([1]; 25μM, third assay): 0.4987 | OD490 Well 3 ([1]; 25μM, third assay): 0.5612 | OD490 Mean ([1]; 50μM, first assay): 0.4403 | OD490 Well 1 ([1]; 50μM, first assay): 0.3579 | OD490 Well 2 ([1]; 50μM, first assay): 0.5436 | OD490 Well 3 ([1]; 50μM, first assay): 0.4193 | OD490 Mean ([1]; 50μM, second assay): 0.4763 | OD490 Well 1 ([1]; 50μM, second assay): 0.4113 | OD490 Well 2 ([1]; 50μM, second assay): 0.5208 | OD490 Well 3 ([1]; 50μM, second assay): 0.4969 | OD490 Mean ([1]; 50μM, third assay): 0.4757 | OD490 Well 1 ([1]; 50μM, third assay): 0.4698 | OD490 Well 2 ([1]; 50μM, third assay): 0.4875 | OD490 Well 3 ([1]; 50μM, third assay): 0.4698 | OD490 Mean ([1]; 100μM, first assay): 0.4342 | OD490 Well 1 ([1]; 100μM, first assay): 0.3369 | OD490 Well 2 ([1]; 100μM, first assay): 0.4685 | OD490 Well 3 ([1]; 100μM, first assay): 0.4971 | OD490 Mean ([1]; 100μM, second assay): 0.4596 | OD490 Well 1 ([1]; 100μM, second assay): 0.4737 | OD490 Well 2 ([1]; 100μM, second assay): 0.4587 | OD490 Well 3 ([1]; 100μM, second assay): 0.4463 | OD490 Mean ([1]; 100μM, third assay): 0.4349 | OD490 Well 1 ([1]; 100μM, third assay): 0.4356 | OD490 Well 2 ([1]; 100μM, third assay): 0.4169 | OD490 Well 3 ([1]; 100μM, third assay): 0.4521 | IC50 ([1]; MTS assay, 24 h exposure): 108 µM | OD490 value, Mean ([2]; 0.5μM, first assay): 2.4433 | OD490 value, Well 1 ([2]; 0.5μM, first assay): 2.2781 | OD490 value, Well 2 ([2]; 0.5μM, first assay): 2.4004 | OD490 value, Well 3 ([2]; 0.5μM, first assay): 2.6514 | OD490 value, Mean ([2]; 0.5μM, second assay): 2.6180 | OD490 value, Well 1 ([2]; 0.5μM, second assay): 2.6587 | OD490 value, Well 2 ([2]; 0.5μM, second assay): 2.4789 | OD490 value, Well 3 ([2]; 0.5μM, second assay): 2.7165 | OD490 value, Mean ([2]; 0.5μM, third assay): 2.7318 | OD490 value, Well 1 ([2]; 0.5μM, third assay): 2.6365 | OD490 value, Well 2 ([2]; 0.5μM, third assay): 2.6647 | OD490 value, Well 3 ([2]; 0.5μM, third assay): 2.8942 | OD490 value, Mean ([2]; 1μM, first assay): 2.5456 | OD490 value, Well 1 ([2]; 1μM, first assay): 2.4058 | OD490 value, Well 2 ([2]; 1μM, first assay): 2.5965 | OD490 value, Well 3 ([2]; 1μM, first assay): 2.6345 | OD490 value, Mean ([2]; 1μM, second assay): 2.6802 | OD490 value, Well 1 ([2]; 1μM, second assay): 2.6241 | OD490 value, Well 2 ([2]; 1μM, second assay): 2.8523 | OD490 value, Well 3 ([2]; 1μM, second assay): 2.5641 | OD490 value, Mean ([2]; 1μM, third assay): 2.6076 | OD490 value, Well 1 ([2]; 1μM, third assay): 2.6360 | OD490 value, Well 2 ([2]; 1μM, third assay): 2.5412 | OD490 value, Well 3 ([2]; 1μM, third assay): 2.6456 | OD490 value, Mean ([2]; 10μM, first assay): 2.4164 | OD490 value, Well 1 ([2]; 10μM, first assay): 2.2701 | OD490 value, Well 2 ([2]; 10μM, first assay): 2.4384 | OD490 value, Well 3 ([2]; 10μM, first assay): 2.5408 | OD490 value, Mean ([2]; 10μM, second assay): 2.3656 | OD490 value, Well 1 ([2]; 10μM, second assay): 2.3071 | OD490 value, Well 2 ([2]; 10μM, second assay): 2.3385 | OD490 value, Well 3 ([2]; 10μM, second assay): 2.4512 | OD490 value, Mean ([2]; 10μM, third assay): 2.4636 | OD490 value, Well 1 ([2]; 10μM, third assay): 2.3685 | OD490 value, Well 2 ([2]; 10μM, third assay): 2.4635 | OD490 value, Well 3 ([2]; 10μM, third assay): 2.5587 | OD490 value, Mean ([2]; 25μM, first assay): 2.2246 | OD490 value, Well 1 ([2]; 25μM, first assay): 1.9325 | OD490 value, Well 2 ([2]; 25μM, first assay): 2.3409 | OD490 value, Well 3 ([2]; 25μM, first assay): 2.4004 | OD490 value, Mean ([2]; 25μM, second assay): 2.1531 | OD490 value, Well 1 ([2]; 25μM, second assay): 2.0147 | OD490 value, Well 2 ([2]; 25μM, second assay): 2.2032 | OD490 value, Well 3 ([2]; 25μM, second assay): 2.2414 | OD490 value, Mean ([2]; 25μM, third assay): 2.1839 | OD490 value, Well 1 ([2]; 25μM, third assay): 2.1010 | OD490 value, Well 2 ([2]; 25μM, third assay): 2.1141 | OD490 value, Well 3 ([2]; 25μM, third assay): 2.3365 | OD490 value, Mean ([2]; 50μM, first assay): 1.8479 | OD490 value, Well 1 ([2]; 50μM, first assay): 1.6416 | OD490 value, Well 2 ([2]; 50μM, first assay): 1.7737 | OD490 value, Well 3 ([2]; 50μM, first assay): 2.1285 | OD490 value, Mean ([2]; 50μM, second assay): 1.7649 | OD490 value, Well 1 ([2]; 50μM, second assay): 1.7425 | OD490 value, Well 2 ([2]; 50μM, second assay): 1.7321 | OD490 value, Well 3 ([2]; 50μM, second assay): 1.8201 | OD490 value, Mean ([2]; 50μM, third assay): 1.8099 | OD490 value, Well 1 ([2]; 50μM, third assay): 1.7845 | OD490 value, Well 2 ([2]; 50μM, third assay): 1.8032 | OD490 value, Well 3 ([2]; 50μM, third assay): 1.8420 | OD490 value, Mean ([2]; 100μM, first assay): 1.6845 | OD490 value, Well 1 ([2]; 100μM, first assay): 1.6759 | OD490 value, Well 2 ([2]; 100μM, first assay): 1.7430 | OD490 value, Well 3 ([2]; 100μM, first assay): 1.6346 | OD490 value, Mean ([2]; 100μM, second assay): 1.6082 | OD490 value, Well 1 ([2]; 100μM, second assay): 1.6324 | OD490 value, Well 2 ([2]; 100μM, second assay): 1.5024 | OD490 value, Well 3 ([2]; 100μM, second assay): 1.6898 | OD490 value, Mean ([2]; 100μM, third assay): 1.7036 | OD490 value, Well 1 ([2]; 100μM, third assay): 1.6578 | OD490 value, Well 2 ([2]; 100μM, third assay): 1.6988 | OD490 value, Well 3 ([2]; 100μM, third assay): 1.7542 | IC50 ([2]; MTS assay, 24 h exposure): 108 µM
